Drawing on patent US10703733B2, “MCL-1 inhibitors” (Gilead Sciences, Inc., priority 2018, dated 2020), this text covers IC50 and EC50 for 26 compounds.

Where two headings read alike, the source gives them in different places.

Test [1] deals with MCL-1/Bim interaction (recombinant human MCL-1 protein, residues 171-327; biotinylated human Bim peptide, residues 51-76) (Homo sapiens (Human), UniProt Q07820). The test can be described thus: MCL-1/Bim Binding AlphaLISA Assay. The following applies: 0.0625 nM 6xHis-Mcl-1 (171-327), 0.0625 nM biotinylated-Bim peptide. The method, boiled down:
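Protein 0.0625 nM + cpd, 1 h; add biotin-Bim 0.0625 nM, 2 h; acceptor beads 1 h; donor beads 1 h; AlphaScreen read. Buffer 20 mM Hepes pH 7.5, 150 mM NaCl, 1 mM DTT.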
Background: Alpha assays give light when donor and acceptor beads are brought close together.

The test system of another test is SKBR3 cells. Kind of test: SKBR3 Cell Viability Assay (CellTiter Glo). The format is cell-based. The note with it: CellTiter Glo luminescence, read-out: MCL-1 CV SKBR3 EC50. Summed up: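 Viability read as CellTiter Glo luminescence after 72 h of compound exposure at 37° C./5% CO2, using 6,000 SKBR3 cells per well in McCoy 5A with 10% FBS. Percent inhibition scaled between DMSO wells and 10 μM puromycin wells.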
On the technique in general: Cellular ATP, detected with luciferase, serves as a proxy for viable cell number.

The IC50 is the concentration at which inhibition is half-maximal. As usually defined, the EC50 is the concentration at which the effect is half-maximal.

MCL-1/Bim interaction (recombinant human MCL-1 protein, residues 171-327; biotinylated human Bim peptide, residues 51-76), sequence (Q07820 171-327): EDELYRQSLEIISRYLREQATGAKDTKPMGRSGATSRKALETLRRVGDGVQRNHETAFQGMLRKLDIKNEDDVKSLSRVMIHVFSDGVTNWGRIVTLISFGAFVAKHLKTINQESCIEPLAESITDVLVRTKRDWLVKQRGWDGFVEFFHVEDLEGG

Consider `CO[C@H]1/C=C/CCC[S@](=O)(NC(=O)[C@@H]2C[C@H]2c2ccnn2C)=NC(=O)c2ccc3c(c2)N(C[C@@H]2CC[C@H]21)C[C@@]1(CCCc2cc(Cl)ccc21)CO3` [Example 84], for which the 50% inhibitory concentration (IC50) in test [1] turned out to be 0.1 nM. For the same compound, the EC50 in the test on SKBR3 cells (72 hours) turned out to be 783 nM.
Regarding `CO[C@H]1/C=C/C[C@H](C)C[S@@](=O)(NC(=O)c2ccc3c(c2)CCOC3)=NC(=O)c2ccc3c(c2)N(C[C@@H]2CC[C@H]21)C[C@@]1(CCCc2cc(Cl)ccc21)CO3` [Example 430], in test [1], the half-inhibitory concentration (IC50) is 0.17 nM. For the same compound, the EC50 in the test with SKBR3 cells (Homo sapiens, SK-BR-3, 72 h) was 139 nM.
In the same order, the values of `CO[C@H]1/C=C/C[C@H](C)C[S@@](=O)(NC(=O)c2cc3n(c2)C[C@H](C)OC3)=NC(=O)c2ccc3c(c2)N(C[C@@H]2CC[C@H]21)C[C@@]1(CCCc2cc(Cl)ccc21)CO3` [Example 167] are 0.141 nM and 58.6 nM.
For `CO[C@H]1/C=C/CCC[S@@](=O)(NC(=O)NCc2ccnn2C)=NC(=O)c2ccc3c(c2)N(C[C@@H]2CC[C@H]21)C[C@@]1(CCCc2cc(Cl)ccc21)CO3` [Example 75] the same measures were 0.3 nM and 692 nM.
Take `CO[C@H]1/C=C/C[C@H](C)C[S@@](=O)(NC(=O)N2CC(Oc3cccnc3)C2)=NC(=O)c2ccc3c(c2)N(C[C@@H]2CC[C@H]21)C[C@@]1(CCCc2cc(Cl)ccc21)CO3` [Example 352]: the IC50 in test [1] was 0.046 nM. Further, in the test with SKBR3 cells (Homo sapiens, SK-BR-3, 72 h), the concentration giving a half-maximal response (EC50) turned out to be 54.4 nM.
In the same order, the values of `COc1nn(C)cc1C(=O)N[S@@]1(=O)=NC(=O)c2ccc3c(c2)N(C[C@@H]2CC[C@H]2[C@@H](OC)/C=C/[C@H](OC)CC1)C[C@@]1(CCCc2cc(Cl)ccc21)CO3` [Example 392] are 0.07 nM and 142 nM.
For `CO[C@H]1/C=C/C[C@H](C)C[S@@](=O)(NC(=O)c2cc(CO)n(C)c2)=NC(=O)c2ccc3c(c2)N(C[C@@H]2CC[C@H]21)C[C@@]1(CCCc2cc(Cl)ccc21)CO3` [Example 185] the same measures were 0.041 nM and 99.2 nM.
On to `CO[C@@H]1CCN(C(=O)N[S@@]2(=O)=NC(=O)c3ccc4c(c3)N(C[C@@H]3CC[C@H]3[C@@H](OC)/C=C/C[C@H](C)C2)C[C@@]2(CCCc3cc(Cl)ccc32)CO4)C1` [Example 350], for which the IC50 in test [1] was determined as 0.055 nM. The EC50 with SKBR3 cells (Homo sapiens, SK-BR-3, 72 h) turned out to be 75.6 nM.
`COC(=O)N1CCn2cc(C(=O)N[S@@]3(=O)=NC(=O)c4ccc5c(c4)N(C[C@@H]4CC[C@H]4[C@@H](OC)/C=C/C[C@H](C)C3)C[C@@]3(CCCc4cc(Cl)ccc43)CO5)cc2C1` [Example 177]: the half-inhibitory concentration (IC50) in test [1] is 0.129 nM. In the test with SKBR3 cells (Homo sapiens, SK-BR-3, 72 h), the EC50 is 46.4 nM.
In the same order, the values of `COc1nn(C)cc1C(=O)N[S@@]1(=O)=NC(=O)c2ccc3c(c2)N(C[C@@H]2CC[C@H]2[C@@H](OC)CC[C@H](O)[C@H](C)C1)C[C@@]1(CCCc2cc(Cl)ccc21)CO3` [Example 298] are 0.016 nM and 71.9 nM.
For `COC(=O)N1CC(NC(=O)N[S@@]2(=O)=NC(=O)c3ccc4c(c3)N(C[C@@H]3CC[C@H]3[C@@H](OC)/C=C/C[C@H](C)C2)C[C@@]2(CCCc3cc(Cl)ccc32)CO4)C1` [Example 114], in test [1], the half-maximal inhibitory concentration (IC50) was 0.043 nM. Moreover, the EC50 in the test on SKBR3 cells (Homo sapiens, SK-BR-3, 72 h) worked out at 154 nM.
For `CO[C@H]1/C=C/CCC[S@@](=O)(NC(=O)CCn2cc(Cl)cn2)=NC(=O)c2ccc3c(c2)N(C[C@@H]2CC[C@H]21)C[C@@]1(CCCc2cc(Cl)ccc21)CO3` [Example 55], in test [1], the IC50 turned out to be 0.2 nM. In the test on SKBR3 cells (Homo sapiens, SK-BR-3, 72 h), the EC50 was found to be 685 nM.
As to `COCCn1cc(C(=O)N[S@@]2(=O)=NC(=O)c3ccc4c(c3)N(C[C@@H]3CC[C@H]3[C@@H](OC)/C=C/C[C@H](C)C2)C[C@@]2(CCCc3cc(Cl)ccc32)CO4)cc1COC` [Example 337], the IC50 in test [1] is 0.05 nM. Further, in the test on SKBR3 cells (Homo sapiens, SK-BR-3, 72 h), the concentration for a half-maximal effect (EC50) turned out to be 86.4 nM.
For `COC1CCn2cc(C(=O)N[S@@]3(=O)=NC(=O)c4ccc5c(c4)N(C[C@@H]4CC[C@H]4[C@@H](OC)/C=C/C[C@H](C)C3)C[C@@]3(CCCc4cc(Cl)ccc43)CO5)nc2C1` (stereo partly shown) [Example 302] the same measures were 0.091 nM and 302 nM.
For `COc1nn(C)cc1C(=O)N[S@@]1(=O)=NC(=O)c2ccc3c(c2)N(C[C@@H]2CC[C@H]2[C@@H](OC(=O)N(C)C)/C=C/C[C@H](C)C1)C[C@@]1(CCCc2cc(Cl)ccc21)CO3` [Example 404] the same measures were 0.092 nM and 197 nM.
In the same order, the values of `CNC(=O)N[S@@]1(=O)=NC(=O)c2ccc3c(c2)N(C[C@@H]2CC[C@H]2[C@@H](OC)/C=C/C[C@H](C)C1)C[C@@]1(CCCc2cc(Cl)ccc21)CO3` [Example 454] are 0.098 nM and 146 nM.
With `COC(=O)N1CCN(C(=O)N[S@@]2(=O)=NC(=O)c3ccc4c(c3)N(C[C@@H]3CC[C@H]3[C@@H](OC)/C=C/C[C@H](C)C2)C[C@@]2(CCCc3cc(Cl)ccc32)CO4)CC1` [Example 245], the IC50 in test [1] was found to be 0.066 nM. Further, the 50% effective concentration (EC50) with SKBR3 cells (Homo sapiens, SK-BR-3, 72 h) stood at 60.7 nM.
For the compound `CC[C@H]1C/C=C/[C@H](OC)[C@@H]2CC[C@H]2CN2C[C@@]3(CCCc4cc(Cl)ccc43)COc3ccc(cc32)C(=O)N=[S@](=O)(NC(=O)c2cnn(C)c2)C1` [Example 201], the IC50 in test [1] was 0.042 nM. Besides, in the test with SKBR3 cells (Homo sapiens, SK-BR-3, 72 h), the EC50 is 103 nM.
In the same order, the values of `CO[C@H]1/C=C/C[C@H](C)C[S@@](=O)(NC(=O)N[C@H]2C[C@H]2CO)=NC(=O)c2ccc3c(c2)N(C[C@@H]2CC[C@H]21)C[C@@]1(CCCc2cc(Cl)ccc21)CO3` (single isomer, unassigned) [Example 365] are 0.04 nM and 146 nM.
For `CO[C@H]1/C=C/C[C@H](C)C[S@@](=O)(NC(=O)N2C3COCC2C3)=NC(=O)c2ccc3c(c2)N(C[C@@H]2CC[C@H]21)C[C@@]1(CCCc2cc(Cl)ccc21)CO3` [Example 236] the same measures were 0.055 nM and 152 nM.
`CO[C@H]1/C=C/C[C@H](C)[C@@H](C)[S@@](=O)(NC(=O)CCc2ccnn2C)=NC(=O)c2ccc3c(c2)N(C[C@@H]2CC[C@H]21)C[C@@]1(CCCc2cc(Cl)ccc21)CO3` [Example 49]: the IC50 in test [1] turned out to be 0.1 nM. In addition, the EC50 in the test on SKBR3 cells (72 hours) amounted to 207 nM.
As to `CCN(CC)C(=O)OC1CN(C(=O)N[S@@]2(=O)=NC(=O)c3ccc4c(c3)N(C[C@@H]3CC[C@H]3[C@@H](OC)/C=C/C[C@H](C)C2)C[C@@]2(CCCc3cc(Cl)ccc32)CO4)C1` [Example 226], the concentration for half-maximal inhibition (IC50) in test [1] stood at 0.095 nM. In the test with SKBR3 cells (Homo sapiens, SK-BR-3, 72 h), the EC50 was determined as 71.3 nM.
For `CO[C@H]1/C=C/C[C@H](C)C[S@@](=O)(NC(=O)[C@H]2C[C@@H](OC)C2)=NC(=O)c2ccc3c(c2)N(C[C@@H]2CC[C@H]21)C[C@@]1(CCCc2cc(Cl)ccc21)CO3` [Example 127] the same measures were 0.085 nM and 158 nM.
In the same order, the values of `CO[C@H]1/C=C/C[C@H](C)C[S@@](=O)(NC(=O)N2CC(Oc3ccncc3)C2)=NC(=O)c2ccc3c(c2)N(C[C@@H]2CC[C@H]21)C[C@@]1(CCCc2cc(Cl)ccc21)CO3` [Example 275] are 0.053 nM and 90.4 nM.
For `COc1nn(C)cc1C(=O)N[S@@]1(=O)=NC(=O)c2ccc3c(c2)N(C[C@@H]2CC[C@H]2[C@@H](OC)/C=C/[C@H](OC(C)=O)[C@H](C)C1)C[C@@]1(CCCc2cc(Cl)ccc21)CO3` [Example 393] the same measures were 0.062 nM and 33.4 nM.
Consider `CO[C@H]1/C=C/CCC[S@@](=O)(NC(=O)CCC2CC2)=NC(=O)c2ccc3c(c2)N(C[C@@H]2CC[C@H]21)C[C@@]1(CCCc2cc(Cl)ccc21)CO3` [Example 81], for which, in test [1], the IC50 turned out to be 0.5 nM. The EC50 in the test with SKBR3 cells (Homo sapiens, SK-BR-3, 72 h) is 612 nM.
